Key:
[1] = test system: H1N1 (influenza A/New Caledonia/20/99); test: microbe, parasite or virus in culture; format: cell-based; conditions: H1N1, A549, 48 h
[2] = target: T1, CISD2 Gene Product (NAF-1) (Homo sapiens, UniProt Q8N5K1); test: Stability of Fe-S cluster binding of purified NEET protein (absorbance 458 nm); format: biochemical; conditions: for Time (in minutes) to achieve 50% loss of bound cluster (Absorbance 458 nm) / Residual cluster bound at end of experiment (Percentage Absorbance 458 nm at time zero): NAF-1 20 μM, compound 60 μM; for Time (in minutes) to achieve 50% loss of bound cluster (Absorbance 458 nm): pH 6, 37° C., run time 500 minutes, vehicle control 310 or 210; for Residual cluster bound at end of experiment (Percentage Absorbance 458 nm at time zero): pH 6, at 500 minutes, vehicle control 3%; for Stabiliser or destabiliser of Fe-S cluster binding by CISD2 Gene Product (NAF-1): time to 50% cluster loss changed by more than 25% compared to the Control sample, at the concentrations tested
T1 sequence (Q8N5K1 57-135 limits assumed): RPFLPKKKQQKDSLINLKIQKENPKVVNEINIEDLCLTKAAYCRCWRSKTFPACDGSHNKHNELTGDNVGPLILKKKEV
Method: (§1) The modulator effect on the NEET proteins encoded by human CISD1, CISD2, and CISD3 genes by the compounds of the invention has been tested and is reported below. Particularly, the biochemical function of the NEET proteins is measured by the stability of Fe—S cluster binding of the purified NEET proteins.
(§2) The Fe—S cluster binding capacity of NEET proteins is known to be coordinated by four amino-acids in a stretch of 16 (three Cysteine and one Histidine). As the lability of the Fe—S cluster of NEET proteins is sensitive to the environment, cluster stability measurements are one of the measures of interactions of NEET proteins with small molecules and compounds. NEET protein/2Fe-2S cluster stability can be assessed by monitoring the decay in absorbance of its characteristic 458-nm peak (characteristic of the oxidized 2Fe-2S cluster) over time. Each NEET protein (mitoNEET, NAF-1 and Miner 2) was tested for its Fe—S binding in the absence or presence of a compound according to the invention (see table 4 below). The rate of cluster release (time in minutes to achieve 50% loss of bound Fe—S cluster) was compared for each NEET protein in the presence of one of the compounds of the invention (in a 1:3 protein:compound molar ratio) relative to each protein alone.
(§3) At pH 6, all the three NEET proteins (mitoNEET, NAF-1 and Miner 2) have a characteristic rate of loss of the bound Fe—S cluster that can be measured by the decrease of absorbance at wavelength 458 nm over time, using a spectrophotometer. Thus, Bis-Tris buffer (100 mM Bis-Tris pH6, 100 mM Nacl) was used at pH 6 to dilute either DMSO (Blank sample: Bis-Tris Buffer pH 6, 66 μM DMSO), DMSO and one of the three NEET proteins (Control sample: Bis-Tris Buffer pH 6, 66 μM DMSO, 20 μM purified NEET protein) or DMSO, one of the three NEET proteins and a compound of the invention (Test sample: Bis-Tris Buffer pH 6, 66 μM DMSO, 20 μM purified NEET protein, 60 μM compound of the invention).
(§4) A reaction mix containing DMSO diluted in the Bis-Tris Buffer with or without a compound of the invention was prepared. The purified NEET protein was the last component added to the reaction mix which was then aliquoted into 4 replicates in 96 wells plates. The absorbance at wavelength 458 nm was taken at 5 minutes intervals at 37° C. with a spectrofluorimeter. The assay run time for CISD2 gene product (NAF-1) was 500 minutes and 180 minutes for both the CISD1gene product (mitoNEET) and the CISD3 gene product (Miner2).
(§5) In addition to time monitoring, residual bound Fe—S cluster to NEET protein was measured at the final point of the spectrometry assay for each Test sample and compared to the Control sample data (in parenthesis table 4). This residual binding is measured by the differential percentage between the absorbance 458 nm at time zero and the absorbance 458 nm at the end of the experiment (i.e. respectively 500 or 180 minutes as described here above), showing the percentage of NEET protein still able to bind a Fe—S cluster.
(§6) Analysis of the absorbance enables the time for which 50% loss of bound Fe—S cluster is reached (i.e. a 50% absorbance decrease at 458 nm) for each Test sample and each Control sample (in parenthesis table 4) to be determined. The data are then compared to determine whether the compound of the invention stabilizes or destabilizes the NEET protein/Fe—S cluster binding.

[3] = target: T2, CISD3 Gene Product (Miner2) (Homo sapiens, UniProt P0C7P0); test: as above; format: biochemical; conditions: for Residual cluster bound at end of experiment (Percentage Absorbance 458 nm at time zero): CISD3 gene product 20 μM, pH 6, at 180 minutes, vehicle control 11%; for Residual cluster bound at end of experiment (Percentage Absorbance 458 nm at time zero) / Time (in minutes) to achieve 50% loss of bound cluster (Absorbance 458 nm): compound 60 μM; for Time (in minutes) to achieve 50% loss of bound cluster (Absorbance 458 nm): Miner2 20 μM, pH 6, 37° C., run time 180 minutes, vehicle control 60; for Stabiliser or destabiliser of Fe-S cluster binding by CISD3 Gene Product (Miner2): time to 50% cluster loss changed by more than 25% compared to the Control sample, at the concentrations tested
T2 sequence (P0C7P0 15-127): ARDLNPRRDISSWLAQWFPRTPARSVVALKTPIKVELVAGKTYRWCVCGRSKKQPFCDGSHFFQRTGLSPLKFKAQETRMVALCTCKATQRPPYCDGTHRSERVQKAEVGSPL
Method: as §1, §2, §3, §4, §5, §6

[4] = target: T3, CISD1 Gene Product (mitoNEET) (Homo sapiens, UniProt Q9NZ45); test: as above; format: biochemical; conditions: for Time (in minutes) to achieve 50% loss of bound cluster (Absorbance 458 nm) / Residual cluster bound at end of experiment (Percentage Absorbance 458 nm at time zero): mitoNEET 20 μM, compound 60 μM; for Time (in minutes) to achieve 50% loss of bound cluster (Absorbance 458 nm): pH 6, 37° C., run time 180 minutes, vehicle control 80; for Residual cluster bound at end of experiment (Percentage Absorbance 458 nm at time zero): pH 6, at 180 minutes, vehicle control 16%
T3 sequence (Q9NZ45 33-108 limits assumed): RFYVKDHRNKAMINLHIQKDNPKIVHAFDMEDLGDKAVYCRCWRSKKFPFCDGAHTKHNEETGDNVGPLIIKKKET
Method: as §1, §2, §3, §4, §5, §6

[5] = test system: UXF 1138; test: Cytotoxicity, propidium iodide based monolayer assay; format: cell-based; conditions: 96 h; UXF 1138 uterine sarcoma, four days of treatment, T/C=50%; read-out: Absolute IC50
Method: (§7) The cytotoxicity was tested for compounds of the invention on five different cell-lines, namely LXFL 1121, MAXF 401, MMXF L-636, PRXF PC-3M and UXF 1138 which are respectively lung large cell carcinoma, breast adeno carcinoma, multiple myeloma, prostate adeno carcinoma and uterine sarcoma.
(§8) A working stock solution of the test compounds was prepared in DMSO at a concentration of 33 mM or 8.25 mM, and small aliquots were stored at −20° C. On each day of an experiment, a frozen aliquot of the working stock solution was thawed and stored at room temperature prior to and during treatment.
(§9) All liquid handling steps were performed using the Tecan Freedom EVO 200 platform. First, serial 2-fold dilutions of the 33 mM DMSO working stock solution were done in DMSO. The DMSO dilutions were then diluted 1:22 into cell culture medium in an intermediate dilution plate. Finally, 10 μl taken from the intermediate dilution plate were transferred to 140 μl/well of the final assay plate. Thus, the DMSO serial dilutions were diluted 1:330 with cell culture medium, and the DMSO concentration in the assay was 0.3% v/v.
(§10) Cell lines were routinely passaged once or twice weekly and maintained in culture for up to 20 passages. Most cell lines were grown at 37° C. in a humidified atmosphere with 5% CO2 in RPMI 1640 medium (25 mM HEPES, with L-glutamine, #FG1385, Biochrom, Berlin, Germany) supplemented with 10% (v/v) fetal calf serum (Sigma, Taufkirchen, Germany) and 0.05 mg/mL gentamicin (Life Technologies, Karlsruhe, Germany).
(§11) A modified propidium iodide (PI) based monolayer assay was used to assess the anti-cancer activity of the compounds. Briefly, cells were harvested from exponential phase cultures, counted and plated in 96 well flat-bottom microtiter plates at a cell density of 4,000 to 40,000 cells/well dependent on the cell line's growth rate. The individual seeding density for each cell line ensure exponential growth conditions over the whole or at least the bigger part of the treatment period. After a 24 h recovery period, to allow the cells to resume exponential growth, 10 μl of culture medium (6 control wells/cell line/plate) or of culture medium with test compounds were added. Compounds were applied at ten concentrations in 2-fold increments in duplicates up to 25 μM or 100 μM and treatment continued for four days. After four days of treatment, cells were next washed with 200 μl PBS to remove dead cells and debris, then 200 μl of a solution containing 7 μg/ml propidium iodide (PI) and 0.1% (v/v) Triton X-100 was added. After an incubation period of 1-2 hours at room temperature, fluorescence (FU) was measured using the Enspire Multimode Plate Reader (excitation λ=530 nm, emission k=620 nm) to quantify the amount of attached viable cells.
(§12) Drug effects were expressed in terms of the percentage of the fluorescence signal, obtained by comparison of the mean signal in the treated wells with the mean signal of the untreated controls (expressed by the test-versus-control value, T/C−value [%]):
(§13) [formula] IC values reported reflect the concentration of the test compound that achieves T/C=50%. Calculation was done by 4 parameter non-linear curve fit.

[6] = test system: PRXF PC-3M; test: as above; format: cell-based; conditions: Homo sapiens, 96 h; PRXF PC-3M prostate adeno carcinoma, four days of treatment, T/C=50%; read-out: Absolute IC50
Method: as §7, §8, §9, §10, §11, §12, §13

[7] = test system: NFκB; test: NFκB reporter assay, TNFα stimulation of A549 NFκB-NanoLuciferase reporter cells; format: cell-based; conditions: Homo sapiens, 4 ng/ml TNFα, NanoGlo luciferase assay 6 hours later
Description: Compounds of the present invention have been tested for their capacity to inhibit NFκB.
The NFκB reporter construct was made by cloning 5 NFκB responsive elements upstream of a NanoLuciferase reporter gene flanked by AAVS1 genomic sequences.
NFκB Responsive element fused with NanoLuciferase and SV40 late Poly(A) signal was amplified from pNL3.2-NFκB-Nluc (Promega) using NFKB-NLUC-F and NFKB-NLUC-R primers and inserted by Infusion (TaKaRa) in AAVS1 SA-2A-puro-pA donor plasmid (Hockemeyer et al, Nat Biotechnol. 2009, 27, 851-7) digested by Sal1. pCRISPR AAVS1-T2 expressing a guide RNA (gRNA) to target human AAVS1 (T2 target sequence) was constructed by inserting AAVS1-T2A hybridized primers in pLentiCRISPR v2-blast (Sanjana et al, Nat Methods. 2014, 11, 783-4) digested by Bsmbl.
A549 cells were transfected by the plasmids and puromycine selected for 5 days (1 μg mL-1). Then clones were obtained by limiting dilution and selected to maximize TNF dependent NFκB-NanoLuciferase induction.
The reporter cells were seeded on a 96-well plate for overnight with DMEM including 10% FBS. Test compounds were added at varying concentrations. The cells then were treated with 4 ng/ml TNFα (Peprotech, ref E251) in DMEM+10% FBS. NanoGlo luciferase assay (Promega) was carried out 6 hours later. Luminescence was measured using a Spark 20M spectrofluorimeter (Tecan). Values were normalized to the luminescence measured in untreated cells.

| Compound | IC50 [1] [nM] | Time (in minutes) to achieve 50% loss of bound cluster (Absorbance 458 nm) [2] | Residual cluster bound at end of experiment (Percentage Absorbance 458 nm at time zero) [2] | Stabiliser or destabiliser of Fe-S cluster binding by CISD2 Gene Product (NAF-1) [2] | Residual cluster bound at end of experiment (Percentage Absorbance 458 nm at time zero) [3] | Time (in minutes) to achieve 50% loss of bound cluster (Absorbance 458 nm) [3] | Time (in minutes) to achieve 50% loss of bound cluster (Absorbance 458 nm) [4] | Residual cluster bound at end of experiment (Percentage Absorbance 458 nm at time zero) [4] | IC50 [5] [nM] | IC50 [6] [nM] | Stabiliser or destabiliser of Fe-S cluster binding by CISD3 Gene Product (Miner2) [3] | Stabiliser or destabiliser of Fe-S cluster binding by CISD1 Gene Product (mitoNEET) ([4]; time to 50% cluster loss changed by more than 25% compared to the Control sample, at the concentrations tested) | EC50 [7] [nM] |
| --- | --- | --- | --- | --- | --- | --- | --- | --- | --- | --- | --- | --- | --- |
| CC1(C)Cc2c(sc(NC(=O)c3ccc(NC4CCOCC4)cc3)c2C(=O)O)C(C)(C)C1 [Compound #35, 5,5,7,7-Tetramethyl-2-[[4-(tetrahydropyran-4-ylamino)benzoyl]amino]-4,6-dihydrobenzothiophene-3-carboxylic acid] | 16.8 | 220 (310) minutes | 13% (3%) | destabilisers | 20% (11%) | 50 (60) minutes | 85 (80) minutes | 26% (16%) | 743 | 702 |  |  |  |
| COCCNc1ccc(C(=O)Nc2sc3c(c2C(=O)O)CC(C)(C)CC3(C)C)cc1 [Compound #60, 2-[[4-(2-Methoxyethylamino)benzoyl]amino]-5,5,7,7-tetramethyl-4,6-dihydrobenzothiophene-3-carboxylic acid] | 10 | 120 (310) minutes | 12% (3%) | destabilisers | 38% (11%) | 90 (60) minutes | 100 (80) minutes | 35% (16%) | 851 |  | Stabilisers | stabilisers |  |
| CC1(C)Cc2c(sc(NC(=O)c3ccc(NCC4CCOCC4)cc3)c2C(=O)O)C(C)(C)C1 [Compound #132, 5,5,7,7-Tetramethyl-2-[[4-(tetrahydropyran-4-ylmethylamino)benzoyl]amino]-4,6-dihydrobenzothiophene-3-carboxylic acid] | 1.7 | 210 (310) minutes | 19% (3%) | destabilisers | 50% (11%) |  | 90 (80) minutes | 19% (16%) |  |  | Stabilisers |  | 40 |

Source: patent publication US11492347B2 (ENYO PHARMA, priority 2018, dated 2022)
